Entries after “also recorded” stand apart in the source; their conditions may differ. Read-outs that look alike come from different tables or passages of the source.

Series [1] concerns chemotherapy-naïve mCRPC patients. Details: method as in PMID 19608618. Particulars: cited from earlier work.
In the next series the test system is patients with mCRPC. Type of series: in vivo.
A short description of series [2]: Chidamide pharmacokinetics in patients (compartmental modeling, Phoenix Winnonlin 7.0). The series is classed as in vivo. The settings on record: male, human, plasma, mCRPC patients, after first administration; for AUC(0-t): read-out: AUC0–24 h, Mean; for clearance: read-out: CL, Mean (converted); for Vd: read-out: Vss, Mean; for half-life: read-out: t 1/2, Mean (converted). On the procedure: From patients administered with different doses of chidamide, blood samples were collected in a sodium heparin tube at the time points of 2, 4, 8, 12, and 24 h after the completion of the first administration of chidamide (Day 1) in treatment cycle 1 and cycle 2. PK parameters were estimated from chidamide concentrations measured using […] samples taken at specified time points postdosing, and were analyzed by Phoenix Winnonlin 7.0.

A further series has as its system C4-2 cells. Put plainly: Cell viability by CCK-8. Type of series: cell-based. Particulars: DHT 10 nM, chidamide 0.5 µM and/or enzalutamide 20 µM, 96 h. As for the experimental part:
(§1) FIGURE 5 Chidamide inhibited AR pathway and CRPC progression and in vitro. (A) Effect of chidamide and enzalutamide on cell viability. C4‐2 cells were treated with DHT (10 nM), chidamide (0.5 µM), and/or enzalutamide (20 µM) for 96 h. Cell viability was measured by CCK‐8. […] DHT (10 nM) served as control.
C4‐2 cell line was provided by Prof. Yonghong Li (Sun Yat‐sen University Cancer Center) and validated by short tandem repeat (STR). C4‐2 cells were grown in RPMI 1640 containing 10% FBS.

Series [3] has as its system AR downstream genes (PSA, TMPRSS2, SLC45A3) in C4-2 cells. Put plainly: RT-PCR of AR downstream genes. Type of series: cell-based. The settings on record: chidamide 0.5 µM. As for the experimental part: as §1
Total cellular RNA was isolated using EZ‐press RNA Purification Kit (EZBioscience, USA) according to the manufacturer's protocol. For first‐strand cDNA synthesis, 5 µg of total RNA was reverse‐transcribed using the PrimeScript RT Master Mix (Perfect Real Time, TaKaRa Bio, Kusatsu, Japan) followed by quantitative PCR (qPCR) with 2 × Taq Master Mix (Vazyme Biotech Co., Ltd, China) according to the manufacturer's instructions. Real‐time PCR analyses were conducted using the Biorad CFX96 system and the appropriate primers to estimate the mRNA expression. The primer sequences were as follows: for PSA, forward 5′‐[…]‐3′ and reverse 5′‐[…]‐3′; for TMPRSS2, forward 5′‐[…]‐3′ and reverse 5′‐[…]‐3′; for SLC45A3, forward 5′‐[…]‐3′ and reverse 5′‐[…]‐3′; for GAPDH, forward 5′‐[…]‐3′ and reverse 5′‐[…]‐3′.

Method for patients with mCRPC: Chidamide was tested in three dose groups (20 mg, 25 mg, 30 mg). The starting dose was 20 mg per dose, administered twice a week, with a treatment cycle lasting 4 weeks. Dosing occurred on fixed days of each week, with two doses administered on the same day each week for the duration of the 4‐week cycle. Three participants are enrolled in each dosage group. If no DLT occurred during the first treatment cycle, the dose was escalated and three patients were enrolled at the next dose level. However, if one DLT was observed, three additional patients were added at the same dose level for further assessment. If no new DLTs occur, the study continues to the next dose level. If two or more of the six patients at a given dose level developed a DLT, further dose escalation was halted, and the prior dose level was determined to be the MTD. Abiraterone was combined with the second administration of chidamide on Day 4 of the first cycle. The observation for DLT was in the period of first cycle of treatment. […]

For `C/C=C1\NC(=O)[C@H]2CSSCC/C=C/[C@H](CC(=O)N[C@H](C(C)C)C(=O)N2)OC(=O)[C@H](C(C)C)NC1=O` [romidepsin], the “Time to progression (TTP)” value in series [1] is listed as 1.8 months.

Turning to `Nc1cc(F)ccc1NC(=O)c1ccc(CNC(=O)/C=C/c2cccnc2)cc1` [chidamide, Chidamide], the “Chidamide-related SAEs” value with patients with mCRPC (all 18 patients) is “No chidamide‐related SAEs were observed”. For the same compound, the “Dose-limited toxicity (DLT)” value in the series with patients with mCRPC (dose escalation 20, 25, 30 mg chidamide, first cycle) was “none of the patients experienced a DLT”. Further, in series [2] (20 mg (N = 4)), the peak level (Cmax) was 79.2 ng/mL, the AUC(0-t) was found to be 1330 ng·h/mL, the clearance is 170 mL/min and the Vd turned out to be 207 L. The half-life in series [2] (20 mg (N = 4)) was 13.9 h. For the same compound, in series [2] (25 mg (N = 11)), the Cmax was 91.2 ng/mL, the AUC(0-t) is 1160 ng·h/mL, the clearance is 260 mL/min and the Vd came out at 326 L. For the same compound, in series [2] (25 mg (N = 11)), the half-life is 13.6 h. Moreover, in series [2] (30 mg (N = 3)), the Cmax came to 296 ng/mL, the AUC(0-t) came to 2860 ng·h/mL, the clearance was 188 mL/min and the Vd turned out to be 132 L. Further, the half-life in series [2] (30 mg (N = 3)) is 8.06 h. In addition, the Cell viability entry in the series with C4-2 cells is reported as “effectively inhibits the cell viability”. In addition, in series [3], the “Relative mRNA expression of PSA” value was “significantly downregulated; also recorded: decreased”, the “Relative mRNA expression of SLC45A3” value was “significantly downregulated; also recorded: decreased” and the “Relative mRNA expression of TMPRSS2” value is “significantly downregulated; also recorded: decreased”.

As a reminder, the Cmax is the maximum level reached in the sampled fluid or tissue.

Source of the values: publication PMC12587161, “Chidamide (a Histone Deacetylase Inhibitor) Plus Abiraterone in Metastatic Castration‐Resistant Prostate Cancer (mCRPC): A Phase Ib Trial” (MedComm, 2025).
